Usually IC50 stands for the concentration that gives 50% inhibition.

Where two headings read alike, the source gives them in different places. Bounds are passed on as bounds.

The target of data set [1] is T1, human recombinant AT2 receptor (Homo sapiens, UniProt P50052).
T1 sequence (P50052 1-363): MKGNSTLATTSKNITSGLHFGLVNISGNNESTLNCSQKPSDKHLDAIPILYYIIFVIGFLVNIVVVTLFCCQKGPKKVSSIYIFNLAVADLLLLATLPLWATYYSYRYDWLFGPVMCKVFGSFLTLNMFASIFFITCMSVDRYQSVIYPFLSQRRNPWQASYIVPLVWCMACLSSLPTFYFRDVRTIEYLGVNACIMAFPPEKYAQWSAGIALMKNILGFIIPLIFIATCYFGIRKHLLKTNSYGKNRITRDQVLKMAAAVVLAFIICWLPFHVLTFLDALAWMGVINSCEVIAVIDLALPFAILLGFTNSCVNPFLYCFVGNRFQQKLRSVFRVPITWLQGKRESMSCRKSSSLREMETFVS
The data set can be described thus: biochemical.
Protocol: (§3) Compounds were evaluated for binding to the human recombinant AT2 and AT1 receptor according to Eurofins protocol ITEM26 and ITEM24 using a radiometric scintillation assay.

In data set [2] the target is T2, human recombinant AT1 receptor (Homo sapiens, UniProt P30556).
T2 sequence (P30556 1-359): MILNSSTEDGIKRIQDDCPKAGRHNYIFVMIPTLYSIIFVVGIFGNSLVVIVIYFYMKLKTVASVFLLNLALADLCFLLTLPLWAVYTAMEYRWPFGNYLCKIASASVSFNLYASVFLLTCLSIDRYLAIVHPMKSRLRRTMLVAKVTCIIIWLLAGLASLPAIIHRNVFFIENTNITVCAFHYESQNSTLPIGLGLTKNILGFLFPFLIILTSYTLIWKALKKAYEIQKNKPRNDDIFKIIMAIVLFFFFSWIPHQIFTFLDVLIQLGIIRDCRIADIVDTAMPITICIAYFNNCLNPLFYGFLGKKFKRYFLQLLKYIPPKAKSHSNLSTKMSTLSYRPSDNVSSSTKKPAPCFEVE
Put plainly: biochemical.
Protocol: as §3

Another data set deals with T3, CYP2C19 (Homo sapiens, UniProt P33261).
T3 construct: using isoform-specific substrates incubated with human liver microsomes; tissue Eurofins ITEMG232; host or cells: human liver microsomes
T3 sequence (P33261 whole entry, canonical isoform): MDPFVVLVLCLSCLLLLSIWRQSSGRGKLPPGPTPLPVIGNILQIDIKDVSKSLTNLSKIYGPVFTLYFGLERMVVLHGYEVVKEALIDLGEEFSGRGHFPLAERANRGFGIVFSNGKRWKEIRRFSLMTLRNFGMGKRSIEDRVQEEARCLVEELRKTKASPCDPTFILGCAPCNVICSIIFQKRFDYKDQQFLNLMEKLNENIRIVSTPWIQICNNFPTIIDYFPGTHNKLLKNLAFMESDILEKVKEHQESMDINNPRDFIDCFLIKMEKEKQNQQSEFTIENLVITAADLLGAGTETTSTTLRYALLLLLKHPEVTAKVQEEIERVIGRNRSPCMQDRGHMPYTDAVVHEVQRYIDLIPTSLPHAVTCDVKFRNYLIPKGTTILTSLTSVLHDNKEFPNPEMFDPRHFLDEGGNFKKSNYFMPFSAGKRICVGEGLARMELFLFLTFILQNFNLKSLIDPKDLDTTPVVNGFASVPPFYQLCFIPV
The data set can be described thus: CYP inhibition in human liver microsomes (Eurofins protocol ITEMG232). The format is in vitro ADME. The conditions noted are these: probe omeprazole, substrate omeprazole, read-out: CYP2C19 Inh %. The protocol:
(§1) The following substrates were used; CYP1A phenacetin, CYP2B6 bupropion, CYP2C8 paclitaxel and amodiaquine, CYP2C9 diclofenac, CYP2C19 omeprazole, CYP2D6 dextromethorphan, CYP3A midazolam and testosterone.
(§2) At the end of the incubation, the formation of metabolite was monitored by HPLC-MS/MS as the peak area response.
On the technique in general: Liver microsomes are a subcellular fraction often used to study metabolism.

For another data set, the target named is T4, CYP2B6 (Homo sapiens, UniProt P20813).
T4 construct: using isoform-specific substrates incubated with human liver microsomes; tissue Eurofins ITEMG232; host or cells: human liver microsomes
T4 sequence (P20813 1-491): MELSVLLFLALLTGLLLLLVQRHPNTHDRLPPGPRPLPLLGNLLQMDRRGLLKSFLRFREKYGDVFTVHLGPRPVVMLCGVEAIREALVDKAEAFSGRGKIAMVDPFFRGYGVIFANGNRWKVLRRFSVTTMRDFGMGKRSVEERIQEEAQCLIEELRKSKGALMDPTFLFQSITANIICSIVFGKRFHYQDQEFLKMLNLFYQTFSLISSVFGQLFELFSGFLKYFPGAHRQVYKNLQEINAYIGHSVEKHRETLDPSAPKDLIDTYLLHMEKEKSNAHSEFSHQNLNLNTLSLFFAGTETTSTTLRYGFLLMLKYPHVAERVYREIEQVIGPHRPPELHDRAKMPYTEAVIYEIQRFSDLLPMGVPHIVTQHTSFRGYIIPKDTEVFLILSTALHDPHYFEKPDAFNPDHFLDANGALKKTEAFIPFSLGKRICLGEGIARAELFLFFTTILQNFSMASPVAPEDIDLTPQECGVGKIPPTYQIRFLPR
The data set is described as above. The conditions noted are these: substrate bupropion; for inhibition at 10 µM: probe bupropion, read-out: CYP2B6 Inh %. The format is in vitro ADME. The protocol:
as §1, §2

In a further data set the target is T5, CYP2C8 (Homo sapiens, UniProt P10632).
T5 construct: using isoform-specific substrates incubated with human liver microsomes; tissue Eurofins ITEMG232; host or cells: human liver microsomes
T5 sequence (P10632 1-490): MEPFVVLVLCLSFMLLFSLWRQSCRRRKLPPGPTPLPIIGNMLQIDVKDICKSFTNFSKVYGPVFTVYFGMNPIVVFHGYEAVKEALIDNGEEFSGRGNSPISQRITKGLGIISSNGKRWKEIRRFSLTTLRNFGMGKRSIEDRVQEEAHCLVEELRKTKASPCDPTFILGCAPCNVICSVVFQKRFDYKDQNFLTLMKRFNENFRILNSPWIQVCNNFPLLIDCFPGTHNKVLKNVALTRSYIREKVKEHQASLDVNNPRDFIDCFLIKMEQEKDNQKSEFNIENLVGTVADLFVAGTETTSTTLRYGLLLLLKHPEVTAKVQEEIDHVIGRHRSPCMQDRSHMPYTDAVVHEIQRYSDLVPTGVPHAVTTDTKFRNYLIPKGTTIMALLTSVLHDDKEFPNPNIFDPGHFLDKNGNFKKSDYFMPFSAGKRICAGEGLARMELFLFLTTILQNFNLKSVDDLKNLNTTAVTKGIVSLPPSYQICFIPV
The data set is described as above. In kind it is in vitro ADME. To be noted: substrates paclitaxel and amodiaquine; for inhibition at 10 µM: probe paclitaxel and amodiaquine, read-out: CYP2C8 Inh %. Here is the method: as §1, §2

The next data set concerns the target T6, CYP1A (Homo sapiens, UniProt P05177).
T6 construct: using isoform-specific substrates incubated with human liver microsomes; tissue Eurofins ITEMG232; host or cells: human liver microsomes
T6 sequence (P05177 2-516 limits assumed): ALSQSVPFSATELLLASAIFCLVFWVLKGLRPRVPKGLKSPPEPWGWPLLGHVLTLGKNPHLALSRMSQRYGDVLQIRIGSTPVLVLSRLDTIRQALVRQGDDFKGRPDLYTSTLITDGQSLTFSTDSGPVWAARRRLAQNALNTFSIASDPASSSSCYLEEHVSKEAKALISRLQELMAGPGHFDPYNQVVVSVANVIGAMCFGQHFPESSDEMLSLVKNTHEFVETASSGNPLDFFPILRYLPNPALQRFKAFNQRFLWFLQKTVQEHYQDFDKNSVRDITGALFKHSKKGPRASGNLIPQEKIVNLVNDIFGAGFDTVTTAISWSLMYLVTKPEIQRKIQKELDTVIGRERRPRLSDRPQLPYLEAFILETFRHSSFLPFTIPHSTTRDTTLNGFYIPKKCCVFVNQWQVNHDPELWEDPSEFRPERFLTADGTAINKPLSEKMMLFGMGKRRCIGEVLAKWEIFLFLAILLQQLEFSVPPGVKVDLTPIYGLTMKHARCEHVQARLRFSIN
Described as above. The conditions noted are these: substrate phenacetin; for inhibition at 10 µM: probe phenacetin, read-out: CYP1A Inh %. In kind it is in vitro ADME. The protocol:
as §1, §2

A further data set has as its target T7, CYP2D6 (Homo sapiens, UniProt P10635).
T7 construct: tissue Eurofins ITEMG232; host or cells: human liver microsomes
The data set is described as above. The format is in vitro ADME. The conditions noted are these: substrate dextromethorphan; for inhibition at 10 µM: probe dextromethorphan, read-out: CYP2D6 Inh %. Here is the method: as §1, §2

Another data set has as its system CYP3A4&5. The data set can be described thus: CYP inhibition in human liver microsomes (Eurofins protocol ITEMG232), testosterone substrate. In kind it is in vitro ADME. The conditions noted are these: probe testosterone, read-out: CYP3A4&5 testosterone Inh %. Here is the method:
as §1, §2

For data set [3], the target named is T8, CYP2C9 (Homo sapiens, UniProt P11712). The data set can be described thus: CYP inhibition in human liver microsomes (Eurofins protocol ITEMG232). The format is in vitro ADME. More on the design: using isoform-specific substrates incubated with human liver microsomes; tissue Eurofins ITEMG232; host or cells: human liver microsomes. The conditions noted are these: probe diclofenac, substrate diclofenac, read-out: CYP2C9 Inh %. Here is the method: as §1, §2
T8 sequence (P11712 whole entry, canonical isoform): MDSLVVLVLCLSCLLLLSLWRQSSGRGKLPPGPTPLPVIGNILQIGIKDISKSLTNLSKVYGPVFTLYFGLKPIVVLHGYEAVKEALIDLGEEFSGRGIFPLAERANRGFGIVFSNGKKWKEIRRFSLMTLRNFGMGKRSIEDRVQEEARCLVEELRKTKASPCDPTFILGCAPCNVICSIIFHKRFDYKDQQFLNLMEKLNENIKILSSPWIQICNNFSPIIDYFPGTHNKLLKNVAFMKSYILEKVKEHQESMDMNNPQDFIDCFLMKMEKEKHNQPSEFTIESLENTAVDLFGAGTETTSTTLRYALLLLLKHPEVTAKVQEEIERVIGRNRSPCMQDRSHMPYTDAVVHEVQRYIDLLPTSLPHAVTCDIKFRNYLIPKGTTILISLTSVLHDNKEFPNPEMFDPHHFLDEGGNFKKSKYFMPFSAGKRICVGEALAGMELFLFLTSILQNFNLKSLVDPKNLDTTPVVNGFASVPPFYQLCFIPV

Data set [4] is described as follows: Metabolic stability in pooled human liver microsomes with or without NADPH. The conditions noted are these: human, pooled human liver microsomes, pooled human liver microsomes 0.5 mg/mL in PBS, 1 uM test compound, 37° C. The format is in vitro ADME. The protocol:
Pooled human liver microsomes in PBS at a concentration of 0.5 mg/mL was incubated with or without 1 mM NADPH for 70 min at 37° C. Test compound was added after 10 minutes to a final concentration of 1 uM. Samples were withdrawn at 0, 5, 15 and 60 minutes and added to test tubes containing acetonitrile, to stop the reaction, and with terfenadine, used as internal standard. After centrifugation at 10000×g for 5 minutes the supernatant was diluted 1:1 with 1% formic acid. Samples were separated on a reverse phase column and detected by triple quadrupole MSMS (Agilant model 6540). The concentration of the parent compound at the different time points was measured with an external standard curve using terfenadine as internal standard and the initial metabolic rate in the presence or absence of NADPH calculated.

Data set [5] concerns the target T9, CYP3A4 (Homo sapiens, UniProt P08684). Put plainly: CYP inhibition in human liver microsomes (Eurofins protocol ITEMG232), midazolam substrate. The format is in vitro ADME. More on the design: using isoform-specific substrates incubated with human liver microsomes; tissue Eurofins ITEMG232; host or cells: human liver microsomes. The conditions noted are these: for inhibition at 10 µM: probe midazolam, read-out: CYP3A4 midazolam Inh %. Here is the method:
as §1, §2

A short description of data set [6]: Metabolic hydrolysis of C21 found during development. The format is in vitro ADME. To be noted: statement in words.
Data set [7] concerns the target T8, CYP2C9. The data set can be described thus: CYP inhibition of C21 found during development. The format is in vitro ADME. To be noted: statement in words.
Data set [8] deals with T9, CYP3A4. The data set can be described thus: CYP inhibition of C21 found during development. In kind it is in vitro ADME. To be noted: statement in words.
[9] abbreviates: with 1 mM NADPH, read-out: T1/2, +NaDPH.
Setting [10] is: without NADPH, read-out: T1/2, no NaDPH.

T7 sequence (P10635 whole entry): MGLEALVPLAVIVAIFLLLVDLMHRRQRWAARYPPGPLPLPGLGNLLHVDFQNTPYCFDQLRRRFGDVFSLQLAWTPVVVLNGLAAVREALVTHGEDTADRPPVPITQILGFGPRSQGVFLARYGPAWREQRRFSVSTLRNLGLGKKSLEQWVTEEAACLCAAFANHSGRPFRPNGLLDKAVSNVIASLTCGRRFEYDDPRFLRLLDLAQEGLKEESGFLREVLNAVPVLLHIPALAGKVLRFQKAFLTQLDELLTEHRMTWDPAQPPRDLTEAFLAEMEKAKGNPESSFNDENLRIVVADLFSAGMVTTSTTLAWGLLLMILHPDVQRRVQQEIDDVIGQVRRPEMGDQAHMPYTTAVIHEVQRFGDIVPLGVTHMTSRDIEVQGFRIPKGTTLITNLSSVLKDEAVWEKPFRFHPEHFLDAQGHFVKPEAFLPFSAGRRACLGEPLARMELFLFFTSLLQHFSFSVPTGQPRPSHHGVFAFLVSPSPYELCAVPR
T9 sequence (P08684 whole entry, canonical isoform): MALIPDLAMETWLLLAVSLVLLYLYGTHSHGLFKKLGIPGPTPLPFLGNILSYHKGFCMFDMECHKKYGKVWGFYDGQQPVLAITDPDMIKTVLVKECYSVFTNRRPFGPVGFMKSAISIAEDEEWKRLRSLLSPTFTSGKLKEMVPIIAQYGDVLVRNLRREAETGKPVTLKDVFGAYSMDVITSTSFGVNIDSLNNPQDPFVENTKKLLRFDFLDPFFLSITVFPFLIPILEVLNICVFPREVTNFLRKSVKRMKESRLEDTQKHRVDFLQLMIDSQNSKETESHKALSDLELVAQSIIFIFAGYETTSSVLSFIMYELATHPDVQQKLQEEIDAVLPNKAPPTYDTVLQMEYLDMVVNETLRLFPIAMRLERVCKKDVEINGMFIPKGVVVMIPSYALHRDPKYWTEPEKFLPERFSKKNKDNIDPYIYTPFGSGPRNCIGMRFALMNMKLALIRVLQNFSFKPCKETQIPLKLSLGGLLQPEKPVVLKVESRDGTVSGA

For `Cc1nccn1Cc1ccc(-c2cc(CC(C)C)sc2S(=O)(=O)NC(=O)OCCOc2ccccc2)cc1F` [Example 9, 2-Phenoxyethyl (3-(3-fluoro-4-((2-methylimidazol-1-yl)methyl]phenyl)-5-isobutyl-2-thienyl)sulfonylcarbamate], the half-inhibitory concentration (IC50) in data set [1] is 3.4 nM; in [2], more than 1000 nM.
As for `Cc1nccn1Cc1ccc(-c2cc(CC(C)C)sc2S(=O)(=O)NC(=O)C(C)(C)C)cc1F` [Example 22, N-((3-(3-Fluoro-4-((2-methyl-1H-imidazol-1-yl)methyl)phenyl)-5-isobutylthiophen-2-yl)sulfonyl)pivalamide], the inhibition at 10 µM was 45.9% on CYP2C19; 1.6% at CYP2B6; 53.9% on CYP2C8; -15.3% on CYP1A; 18.9% on CYP2D6; 23.8% with CYP3A4&5. Further, the figures for the inhibition at 10 µM on CYP2C9 [3] and on CYP3A4 [5] were 23.3% and 51.7%, respectively. Further, the half-life at 1 uM in [4] (setting [9]) was found to be 29 min; in data set [4] (setting [10]), 44 min.
Consider `CCc1nccn1Cc1ccc(-c2cc(CC(C)C)sc2S(=O)(=O)NC(=O)OC)cc1F` [Example 25, Methyl (3-(4-((2-ethyl-1H-imidazol-1-yl)methyl)-3-fluorophenyl)-5-isobutylthiophen-2-yl)sulfonylcarbamate], for which the inhibition at 10 µM turned out to be 0.5% at CYP2C19; 20% at CYP2B6; 21.9% on CYP2C8; 23.5% at CYP1A; 17.1% on CYP2D6; 26.6% with CYP3A4&5. The inhibition at 10 µM at CYP2C9 [3] was 50.4%; at CYP3A4 [5], -28.7%. The half-life at 1 uM in [4] (setting [9]) and in [4] (setting [10]) was more than 60 min each time.
On to `CCCCOC(=O)NS(=O)(=O)c1sc(CC(C)C)cc1-c1ccc(Cn2ccnc2)cc1` [Example C21, N-butyloxycarbonyl-3-(4-imidazol-1-ylmethylphenyl)-5-isobutylthiophene-2-sulfon-amide, reference compound], for which the “CYP2B6 Inh %” value on CYP2B6 (10 μM) turned out to be 49%. In addition, the “CYP2C8 Inh %” value at CYP2C8 (10 μM) is listed as 80%. Further, the “CYP1A Inh %” value on CYP1A (10 μM) is 91%. Moreover, the “CYP2D6 Inh %” value on CYP2D6 (10 μM) is on record as 81%. In addition, the “hydrolysis to an inactive sulfonamide metabolite” value in data set [6] is “rapidly hydrolysed”. The “inhibition of CYP 2C9” value on CYP2C9 [7] is “potent inhibitor”. The inhibition at 10 µM in the data set with CYP3A4&5 is 94%. Besides, the “inhibition of CYP 3A4” value against CYP3A4 [8] is “potent inhibitor”. In addition, the half-life at 1 uM was found to be 35 min in data set [4] (setting [9]) and 31 min in data set [4] (setting [10]). In addition, at CYP3A4 [5] (10 μM), the “CYP3A4 midazolam Inh %” value is 95%.

For the origin of these results see patent publication US20230348444A1, “NOVEL COMPOUNDS FOR USE IN THE TREATMENT OF DISEASES ASSOCIATED WITH ANGIOTENSIN II” (Vicore Pharma AB, priority 2020, published 2023).
